Consider 20 compounds from patent publication US20260317320A1, “C5AR1 ANTAGONISTS AND USES THEREOF” (Vanqua Bio, Inc., priority 2022, published 2026).

As a reminder, the IC50 is the midpoint of a concentration-inhibition curve.

Experiment [1] addresses T1, complement C5a receptor 1 (C5aR1) (Homo sapiens, UniProt P21730).
T1 construct: β-galactosidase fragment (PathHunter enzyme complementation); host or cells: CHO-K1 (PathHunter CHO-K1 C5aR1 β-arrestin cell line)
T1 sequence (P21730 1-350): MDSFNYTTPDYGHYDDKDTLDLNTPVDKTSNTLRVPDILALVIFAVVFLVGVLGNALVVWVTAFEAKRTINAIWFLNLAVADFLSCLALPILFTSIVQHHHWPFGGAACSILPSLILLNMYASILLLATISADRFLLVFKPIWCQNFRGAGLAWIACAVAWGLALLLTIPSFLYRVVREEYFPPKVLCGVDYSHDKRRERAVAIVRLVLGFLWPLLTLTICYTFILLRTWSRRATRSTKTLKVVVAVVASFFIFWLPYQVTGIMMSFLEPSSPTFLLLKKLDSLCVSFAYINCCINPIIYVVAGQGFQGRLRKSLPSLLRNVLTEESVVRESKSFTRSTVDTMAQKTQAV
Kind of experiment: β-arrestin recruitment via C5aR1 activation in live CHO-K1 cells (PathHunter), agonist mode. Format: cell-based. The procedure: Exemplary compounds were evaluated for classical GPCR β-arrestin recruitment via complement C5a receptor 1 (C5aR1) activation in live CHO-K1 cells. This cell line expresses two fragments of the […] protein coupled to β-arrestin and C5aR1. Complementation of the two fragments allows for the assessment of both C5aR1 agonism and antagonism. Recombinant hC5a (EC90) was used as the competing natural agonist against disclosed compounds (more information on the expanded protocol and cell line can be found on the manufacturer's website: PathHunter® CHO-K1 C5aR1 β-arrestin cell line, DiscoverX, Catalog No. 93-0557C2). […] IC50 ranges: A: IC50≤500 nM; B: 500 nM<IC50≤5 uM; C: 5 uM<IC50≤100 uM; D: IC50>100 uM.
Background: Activated receptors often draw arrestin, which recruitment assays turn into a signal.

For experiment [2], the target named is T1, complement C5a receptor 1 (C5aR1). Kind of experiment: β-arrestin recruitment via C5aR1 activation in live CHO-K1 cells (PathHunter), antagonist mode. Format: cell-based. The method in brief: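 Live CHO-K1 cells carry two galactosidase enzyme fragments, one fused to β-arrestin and one to C5aR1, so that β-arrestin recruitment restores enzyme activity. Agonist mode tests compounds alone. Antagonist mode tests them against recombinant hC5a at EC90, and IC50 values are reported in binned ranges.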

Where [3] appears, read: antagonist mode, recombinant hC5a (EC90) as competing natural agonist, live CHO-K1 cells, read-out: [Antagonist] B-arrestin2 recruitment: Average IC50.

The structures appear in SMILES notation. Read-outs that look alike come from different tables or passages of the source.

As to `Cc1cnc2cc([C@H]3CC[C@H](c4c(F)cccc4F)CC3)c(=O)n(Cc3ncccc3CC(F)(F)F)c2n1` [compound 236, 7-((1r,4r)-4-(2,6-Difluorophenyl)cyclohexyl)-3-methyl-5-((3-(2,2,2-trifluoroethyl)pyridin-2-yl)methyl)pyrido[2,3-b]pyrazin-6(5H)-one], in experiment [1] (at 10 μM), the “[Agonist] B-arrestin2 recruitment: Average EC50 (nM)” value (from here on “[Agonist] B-arrestin2 recruitment”) is given as “Non-Active at 10 μM”. Moreover, in experiment [2] (setting [3]), the IC50 was less than 0.5 µM.

`Cc1ccc2cc([C@H]3CC[C@H](c4cnccc4C(F)(F)F)CC3)c(=O)n(Cc3ncccc3C(C)(F)F)c2n1` [compound 254, 1-{[3-(1,1-Difluoroethyl)-2-pyridyl]methyl}-7-methyl-3-{(1r,4r)-4-[4-(trifluoromethyl)-3-pyridyl]cyclohexyl}-1,8-diaza-2(1H)-naphthalenone]: the “[Agonist] B-arrestin2 recruitment” value in experiment [1] was “Non-Active”. Moreover, the IC50 in experiment [2] (setting [3]) was less than 0.5 µM.

For `Cc1cnc2cc([C@H]3CC[C@H](c4c(C)ccnc4F)CC3)c(=O)n(Cc3nccnc3C(F)F)c2n1` [146B, 5-((3-(Difluoromethyl)pyrazin-2-yl)methyl)-7-((1r,4r)-4-(2-fluoro-4-methylpyridin-3-yl)cyclohexyl)-3-methylpyrido[2,3-b]pyrazin-6(5H)-one], in experiment [1] (at 10 μM), the “[Agonist] B-arrestin2 recruitment” value is reported as “Non-Active at 10 μM”. Moreover, the IC50 in experiment [2] (setting [3]) was 0.5 to 5 µM.

As to `Cc1cnc2cc(C3CCN(c4c(C)cccc4F)CC3)c(=O)n(Cc3ncccc3OC(F)(F)F)c2n1` [compound 68, 7-(1-(2-Fluoro-6-methylphenyl)piperidin-4-yl)-3-methyl-5-((3-(trifluoromethoxy)pyridin-2-yl)methyl)pyrido[2,3-b]pyrazin-6(5H)-one], in experiment [1], the “[Agonist] B-arrestin2 recruitment” value is reported as “Non-Active”. The IC50 in experiment [2] (setting [3]) was less than 0.5 µM.

Turning to `COc1nccc(C)c1[C@H]1CC[C@H](c2cc3ccc(C)nc3n(Cc3ncccc3C(C)(F)F)c2=O)CC1` [compound 256, 1-{[3-(1,1-Difluoroethyl)-2-pyridyl]methyl}-7-methyl-3-[(1r,4r)-4-(2-methoxy-4-methyl-3-pyridyl)cyclohexyl]-1,8-diaza-2(1H)-naphthalenone], the “[Agonist] B-arrestin2 recruitment” value in experiment [1] is given as “Non-Active”. Further, the half-inhibitory concentration (IC50) in experiment [2] (setting [3]) was less than 0.5 µM.

On to `Cc1cnc2cc(N3CCN(c4c(C)cccc4F)CC3)c(=O)n(Cc3ncccc3OC(F)(F)F)c2n1` [compound 124, 7-(4-(2-Fluoro-6-methylphenyl)piperazin-1-yl)-3-methyl-5-((3-(trifluoromethoxy)pyridin-2-yl)methyl)pyrido[2,3-b]pyrazin-6(5H)-one], for which the “[Agonist] B-arrestin2 recruitment” value in experiment [1] was “Non-Active”. The half-maximal inhibitory concentration (IC50) in experiment [2] (setting [3]) is less than 0.5 µM.

Regarding `Cc1cccc(F)c1N1CCC(c2nc3nccnc3n(Cc3ccccc3C(F)(F)F)c2=O)CC1` [compound 39, 3-(1-(2-Fluoro-6-methylphenyl)piperidin-4-yl)-1-(2-(trifluoromethyl)benzyl)pyrazino[2,3-b]pyrazin-2(1H)-one], the “[Agonist] B-arrestin2 recruitment” value in experiment [1] is “Non-Active”. Further, the 50% inhibitory concentration (IC50) in experiment [2] lay in the range of 0.5 to 5 µM.

With `Cc1cnc2cc(C3CCN(c4cc(F)cnc4C)CC3)c(=O)n(Cc3nccnc3C(F)(F)F)c2n1` [compound 52, 7-(1-(5-Fluoro-2-methylpyridin-3-yl)piperidin-4-yl)-3-methyl-5-((3-(trifluoromethyl)pyrazin-2-yl)methyl)pyrido[2,3-b]pyrazin-6(5H)-one], the “[Agonist] B-arrestin2 recruitment” value in experiment [1] is on record as “Non-Active”. Moreover, in experiment [2] (setting [3]), the half-inhibitory concentration (IC50) is more than 100 µM.

Turning to `Cc1cccc(F)c1N1CCC(c2cc3nccnc3n(Cc3ccc(C(F)(F)F)nc3)c2=O)CC1` [compound 14, 7-(1-(2-Fluoro-6-methylphenyl)piperidin-4-yl)-5-((6-(trifluoromethyl)pyridin-3-yl)methyl)pyrido[2,3-b]pyrazin-6(5H)-one], the “[Agonist] B-arrestin2 recruitment” value in experiment [1] is given as “Non-Active”. In experiment [2] (setting [3]), the 50% inhibitory concentration (IC50) was more than 100 µM.

Take `Cc1cnc2cc(C3CCN(c4c(C)cccc4F)CC3)c(=O)n([C@H]3CCC(F)(F)c4nccnc43)c2n1` [149B, (S)-5-(8,8-Difluoro-5,6,7,8-tetrahydroquinoxalin-5-yl)-7-(1-(2-fluoro-6-methylphenyl)piperidin-4-yl)-3-methylpyrido[2,3-b]pyrazin-6(5H)-one]: the “[Agonist] B-arrestin2 recruitment” value in experiment [1] is “Non-Active”. Also, the 50% inhibitory concentration (IC50) in experiment [2] (setting [3]) is less than 0.5 µM.

Regarding `Cc1ccc2cc([C@H]3CC[C@H](c4c(C)cccc4F)CC3)c(=O)n(Cc3ncccc3C(F)F)c2n1` [compound 193, 1-((3-(Difluoromethyl)pyridin-2-yl)methyl)-3-((1r,4r)-4-(2-fluoro-6-methylphenyl)cyclohexyl)-7-methyl-1,8-naphthyridin-2(1H)-one], the “[Agonist] B-arrestin2 recruitment” value in experiment [1] is “Non-Active”. In experiment [2] (setting [3]), the IC50 is less than 0.5 µM.

For `Cc1cnc2c(=O)n(C3CCN(c4c(C)cccc4F)CC3)c(=O)n(Cc3ncccc3C(F)(F)F)c2n1` [compound 50, 3-(1-(2-Fluoro-6-methylphenyl)piperidin-4-yl)-7-methyl-1-((3-(trifluoromethyl)pyridin-2-yl)methyl)pteridine-2,4(1H,3H)-dione], in experiment [1], the “[Agonist] B-arrestin2 recruitment” value was “Non-Active”. In addition, the half-inhibitory concentration (IC50) in experiment [2] (setting [3]) lay in the range of 0.5 to 5 µM.

On to `Cc1cnc2cc(C3CCN(c4cnsc4C)CC3)c(=O)n(Cc3ncccc3C(F)(F)F)c2n1` [compound 145, 3-Methyl-7-(1-(5-methylisothiazol-4-yl)piperidin-4-yl)-5-((3-(trifluoromethyl)pyridin-2-yl)methyl)pyrido[2,3-b]pyrazin-6(5H)-one], for which, in experiment [1], the “[Agonist] B-arrestin2 recruitment” value was “Non-Active”. In addition, in experiment [2] (setting [3]), the IC50 is less than 0.5 µM.

Consider `Cc1cnc2cc([C@H]3CC[C@@H](c4cnccc4C(F)(F)F)CC3)c(=O)n(Cc3ncccc3C(F)(F)F)c2n1` [150A, 3-Methyl-5-((3-(trifluoromethyl)pyridin-2-yl)methyl)-7-((1s,4s)-4-(4-(trifluoromethyl)pyridin-3-yl)cyclohexyl)pyrido[2,3-b]pyrazin-6(5H)-one], for which the “[Agonist] B-arrestin2 recruitment” value in experiment [1] (at 10 μM) is given as “Non-Active at 10 μM”. Moreover, in experiment [2] (setting [3]), the 50% inhibitory concentration (IC50) is less than 0.5 µM.

As for `Cc1cnc2cc([C@@H]3CC[C@@H](c4c(C)cccc4F)C3)c(=O)n(Cc3ncccc3OC(F)F)c2n1` [175D, 5-((3-(Difluoromethoxy)pyridin-2-yl)methyl)-7-((1R,3R)-3-(2-fluoro-6-methylphenyl)cyclopentyl)-3-methylpyrido[2,3-b]pyrazin-6(5H)-one], the “[Agonist] B-arrestin2 recruitment” value in experiment [1] (at 10 μM) is listed as “Non-Active at 10 μM”. The IC50 in experiment [2] (setting [3]) is 0.5 to 5 µM.

`COc1nccc(C)c1[C@H]1CC[C@H](c2cc3ccc(C)nc3n(Cc3ncccc3CC(F)(F)F)c2=O)CC1` [compound 260, 7-Methyl-3-[(1r,4r)-4-(2-methoxy-4-methyl-3-pyridyl)cyclohexyl]-1-{[3-(2,2,2-trifluoroethyl)-2-pyridyl]methyl}-1,8-diaza-2(1H)-naphthalenone]: in experiment [1], the “[Agonist] B-arrestin2 recruitment” value is given as “Non-Active”. Also, the IC50 in experiment [2] (setting [3]) is less than 0.5 µM.

With `COc1cnc2cc(C3CCN(c4c(C)cccc4F)CC3)c(=O)n(Cc3ccccc3C(F)(F)F)c2n1` [compound 58, 7-(1-(2-Fluoro-6-methylphenyl)piperidin-4-yl)-3-methoxy-5-(2-(trifluoromethyl)benzyl)pyrido[2,3-b]pyrazin-6(5H)-one], the “[Agonist] B-arrestin2 recruitment” value in experiment [1] is recorded as “Non-Active”. Besides, the half-inhibitory concentration (IC50) in experiment [2] (setting [3]) was 0.5 to 5 µM.

Consider `Cc1cnc2cc([C@H]3CC[C@H](c4c(C)cccc4F)CC3)c(=O)n([C@H]3CCC(F)(F)c4nccnc43)c2n1` [174A, 5-((S)-8,8-Difluoro-5,6,7,8-tetrahydroquinoxalin-5-yl)-7-((1r,4S)-4-(2-fluoro-6-methylphenyl)cyclohexyl)-3-methylpyrido[2,3-b]pyrazin-6(5H)-one], for which the “[Agonist] B-arrestin2 recruitment” value in experiment [1] (at 10 μM) is recorded as “Non-Active at 10 μM”. Also, the IC50 in experiment [2] (setting [3]) fell in the range of 5 to 100 µM.

As to `Cc1cnc2cc([C@H]3CC[C@@H](c4c(C)ccnc4F)CC3)c(=O)n(Cc3nccnc3C)c2n1` [135A, 7-((1s,4s)-4-(2-Fluoro-4-methylpyridin-3-yl)cyclohexyl)-3-methyl-5-((3-methylpyrazin-2-yl)methyl)pyrido[2,3-b]pyrazin-6(5H)-one], the “[Agonist] B-arrestin2 recruitment” value in experiment [1] (at 10 μM) is “Non-Active at 10 μM”. Also, in experiment [2] (setting [3]), the IC50 lay in the range of 5 to 100 µM.

For the compound `Cc1ccc2nc(C3CCN(c4c(C)cccc4F)CC3)c(=O)n(Cc3ncccc3C(F)(F)F)c2c1` [142A, 3-(1-(2-Fluoro-6-methylphenyl)piperidin-4-yl)-7-methyl-1-((3-(trifluoromethyl)pyridin-2-yl)methyl)quinoxalin-2(1H)-one], the “[Agonist] B-arrestin2 recruitment” value in experiment [1] is given as “Non-Active”. Further, the IC50 in experiment [2] (setting [3]) was more than 100 µM.
